pIC50: −log10 of the molar value.
Legend:
[1] = system: WT-BaF3 cells; assay: Cell antiproliferative activity assay (CCK-8), WT-BaF3 (broad-spectrum cytotoxicity); format: cell-based; settings: 72 h; WT-BaF3 cells (IL-3 supplemented), CCK-8, 3 days incubation
Procedure: (§1) The activity of compounds against BRK kinase can be evaluated by their inhibition of the growth of the BRK kinase-stably transfected BaF3 cell line (BRK-BaF3) and wild-type BaF3 cells (WT-BaF3). […] The larger the ratio of the half-maximal growth inhibitory concentration (IC50) of a compound between WT-BaF3 and BRK-BaF3 cells, the better the selectivity of the compound.
(§2) BRK-BaF3, WT-BaF3, WEHI cell line, and breast cancer cell line T47D were cultured using RPMI 1640 Basal medium or DMEM (Dulbecco's Modified Eagle Medium) (Shanghai Peiyuan Biotechnology, L220KJ), supplemented with 10% FBS (Gibco, REF 10099-141C) and 1% P/S (Shanghai Peiyuan Biotechnology, S110JV), in an incubator (Thermo 3020) at 37°C with 5% CO2. Cell viability was above 95%. Cells were passaged at a 3:1 ratio every 3-4 days. For WT-BaF3 cells, WEHI cells were first cultured, and their culture supernatant was filtered through a 0.22 µm filter. This supernatant was added at 10% to the regular culture medium to supplement IL-3 required for WT-BaF3 cell proliferation, which served as the culture medium for WT-BaF3. For testing, cells were first collected and counted, then prepared into a cell suspension at 100,000 cells/mL and plated at 100 µL per well. Drug concentrations started from 10 µM and were serially diluted 3:1. After incubation for 3 days, 20 µL of CCK-8 detection reagent (Targetmol C005) was added to each well. After incubation for 2-4 hours, OD450 was measured using a microplate reader (Varioskan LUX, Thermo Scientific). After subtracting the blank background, the curve was fitted and the IC50 was calculated using XLfit software.

[2] = system: BRK-BaF3 cells; assay: Cell antiproliferative activity assay (CCK-8), BRK-BaF3; format: cell-based; settings: 72 h, CCK-8, 3 days incubation
Procedure: as §1, §2

| Structure (SMILES) | pIC50 [2] | pIC50 [1] |
| --- | --- | --- |
| Cc1nn(CCO)cc1Nc1ncc2cc(-c3ccncc3)cc(C(C)C)c2n1 [I-10] | 7.00 to 7.70 | 5.60 to 6.30 |
| COc1cnccc1-c1cc(C(C)C)c2nc(Nc3cn(CCO)nc3C)ncc2c1 [I-13] | ≥ 7.70 | < 5.60 |
| Cc1nn(CCO)cc1Nc1ncc2cc(-c3cccnc3C#N)cc(C(C)C)c2n1 [I-26] | ≥ 7.70 | < 5.60 |
| Cc1nn(CCO)cc1Nc1ncc2cc(-c3cccnc3C3CC3)cc(C(C)C)c2n1 [I-28] | 7.00 to 7.70 | 5.60 to 6.30 |
| Cc1nn(CCO)cc1Nc1ncc2cc(-c3cnccc3C#N)cc(C(C)C)c2n1 [I-34] | ≥ 7.70 | < 5.60 |
| Cc1ncc(F)cc1-c1cc(C(C)C)c2nc(Nc3cnn(CCO)c3)ncc2c1 [I-52] | ≥ 7.70 | < 5.60 |
| Cc1ncccc1-c1cc(C(C)C)c2nc(Nc3cnn(CCO)c3C)ncc2c1 [I-66] | 7.00 to 7.70 | 5.60 to 6.30 |
| Cc1nn(CCO)cc1Nc1ncc2cc(-c3cccnc3)cc(C3CC3)c2n1 [I-72] | ≥ 7.70 | 6.30 to 7.00 |
| Cc1nn(CCO)cc1Nc1ncc2cc(-c3cc(F)cnc3C)cc(C3CC3)c2n1 [I-74] | ≥ 7.70 | 5.60 to 6.30 |
| Cc1nn(CCO)cc1Nc1ncc2cc(-c3cccnc3)cc(C(F)(F)F)c2n1 [I-75] | ≥ 7.70 | < 5.60 |
| Cc1nn(CCO)cc1Nc1ncc2cc(-c3cccnc3C)cc(C(F)(F)F)c2n1 [I-76] | ≥ 7.70 | < 5.60 |
| Cc1ccnc(C)c1-c1cc(C(F)(F)F)c2nc(Nc3cn(CCO)nc3C)ncc2c1 [I-77] | ≥ 7.70 | 5.60 to 6.30 |
| Cc1nccnc1-c1cc(C(C)C)c2nc(Nc3cnn(CCO)c3)ncc2c1 [I-97] | ≥ 7.70 | 5.60 to 6.30 |
| Cc1nn(CC(C)(C)O)cc1Nc1ncc2cc(-c3nccnc3C)cc(C(C)C)c2n1 [I-101] | ≥ 7.70 | < 5.60 |
| Cc1nccnc1-c1cc(C(C)C)c2nc(Nc3cnn(CCO)c3C)ncc2c1 [I-102] | ≥ 7.70 | < 5.60 |
| Cc1nn(CCO)cc1Nc1ncc2cc(-c3nccnc3C)cc(C3CC3)c2n1 [I-103] | ≥ 7.70 | 5.60 to 6.30 |
| Cc1nn(CCO)cc1Nc1ncc2cc(-c3nccnc3Cl)cc(C3CC3)c2n1 [I-104] | ≥ 7.70 | < 5.60 |
| Cc1nn(CCO)cc1Nc1ncc2cc(-c3nccnc3N)cc(C3CC3)c2n1 [I-105] | ≥ 7.70 | 5.60 to 6.30 |
| Cc1nccnc1-c1cc(C2CC2)c2nc(Nc3cnn(CCO)c3)ncc2c1 [I-107] | ≥ 7.70 | 5.60 to 6.30 |
| Cc1nccnc1-c1cc(C(F)(F)F)c2nc(Nc3cnn(CCO)c3)ncc2c1 [I-110] | ≥ 7.70 | < 5.60 |
| Cc1nn(CCO)cc1Nc1ncc2cc(-c3nnccc3C#N)cc(C3CC3)c2n1 [I-118] | 7.00 to 7.70 | < 5.60 |
| Cc1ccnnc1-c1cc(C(F)(F)F)c2nc(Nc3cn(CCO)nc3C)ncc2c1 [I-122] | ≥ 7.70 | 5.60 to 6.30 |
| Cc1cncnc1-c1cc(C2CC2)c2nc(Nc3cn(CCO)nc3C)ncc2c1 [I-148] | ≥ 7.70 | < 5.60 |
| Cc1ncnc(C)c1-c1cc(C(F)(F)F)c2nc(Nc3cnn(CCO)c3)ncc2c1 [I-149] | 7.00 to 7.70 | < 5.60 |
| Cc1nn(CCO)cc1Nc1ncc2cc(-c3c(C)ncnc3C)cc(C(F)(F)F)c2n1 [I-150] | ≥ 7.70 | < 5.60 |
| Cc1nn(CCO)cc1Nc1ncc2cc(-c3cncnc3)cc(C(F)(F)F)c2n1 [I-151] | 7.00 to 7.70 | < 5.60 |
| Cc1nn(CCO)cc1Nc1ncc2cc(-c3cncnc3C)cc(C(F)(F)F)c2n1 [I-152] | ≥ 7.70 | < 5.60 |
| COc1ncncc1-c1cc(C(F)(F)F)c2nc(Nc3cn(CCO)nc3C)ncc2c1 [I-153] | ≥ 7.70 | < 5.60 |
| Cc1ccc(C#N)cc1-c1cc(C(C)C)c2nc(Nc3cnn(CCO)c3C)ncc2c1 [I-170] | ≥ 7.70 | < 5.60 |
| Cc1c[nH]c(=O)cc1-c1cc(C(C)C)c2nc(Nc3cnn(CCO)c3C)ncc2c1 [I-181] | 7.00 to 7.70 | < 5.60 |

Continued, in another order:

| pIC50 [2] | Structure (SMILES) | pIC50 [1] |
| --- | --- | --- |
| ≥ 7.70 | Cc1nn(CCO)cc1Nc1ncc2cc(-c3ccncc3F)cc(C(C)C)c2n1 [I-11] | 5.60 to 6.30 |
| ≥ 7.70 | Cc1cnccc1-c1cc(C(C)C)c2nc(Nc3cn(CCO)nc3C)ncc2c1 [I-12] | 5.60 to 6.30 |
| ≥ 7.70 | Cc1cnc(F)cc1-c1cc(C(C)C)c2nc(Nc3cn(CCO)nc3C)ncc2c1 [I-17] | 5.60 to 6.30 |
| ≥ 7.70 | COc1ncccc1-c1cc(C(C)C)c2nc(Nc3cn(CCO)nc3C)ncc2c1 [I-25] | < 5.60 |
| ≥ 7.70 | Cc1nn(CCO)cc1Nc1ncc2cc(-c3cnccc3F)cc(C(C)C)c2n1 [I-31] | < 5.60 |
| ≥ 7.70 | COc1ccncc1-c1cc(C(C)C)c2nc(Nc3cn(CCO)nc3C)ncc2c1 [I-33] | < 5.60 |
| ≥ 7.70 | Cc1nn(CCO)cc1Nc1ncc2cc(-c3cc(F)cnc3F)cc(C(C)C)c2n1 [I-40] | < 5.60 |
| ≥ 7.70 | Cc1nn(CCO)cc1Nc1ncc2cc(-c3cc(C#N)cnc3C)cc(C(C)C)c2n1 [I-42] | < 5.60 |
| ≥ 7.70 | Cc1nn(CCO)cc1Nc1ncc2cc(-c3c(Cl)ccnc3Cl)cc(C(C)C)c2n1 [I-44] | 5.60 to 6.30 |
| ≥ 7.70 | Cc1nn(CCO)cc1Nc1ncc2cc(-c3c(F)ccnc3Cl)cc(C(C)C)c2n1 [I-45] | < 5.60 |
| ≥ 7.70 | Cc1ccnc(C)c1-c1cc(C(C)C)c2nc(Nc3cn(CCO)nc3C)ncc2c1 [I-47] | 5.60 to 6.30 |
| ≥ 7.70 | Cc1nn(CCO)cc1Nc1ncc2cc(-c3c(Cl)ccnc3N)cc(C(C)C)c2n1 [I-49] | < 5.60 |
| ≥ 7.70 | Cc1ccnc(N)c1-c1cc(C(C)C)c2nc(Nc3cn(CCO)nc3C)ncc2c1 [I-50] | < 5.60 |
| ≥ 7.70 | Cc1nn(CCO)cc1Nc1ncc2cc(-c3nccnc3F)cc(C(C)C)c2n1 [I-79] | 5.60 to 6.30 |
| 7.00 to 7.70 | COc1nccnc1-c1cc(C(C)C)c2nc(Nc3cn(CCO)nc3C)ncc2c1 [I-82] | 5.60 to 6.30 |
| ≥ 7.70 | Cc1nn(CCO)cc1Nc1ncc2cc(-c3nccnc3N)cc(C(C)C)c2n1 [I-84] | < 5.60 |
| ≥ 7.70 | Cc1cncc(-c2cc(C(C)C)c3nc(Nc4cn(CCO)nc4C)ncc3c2)n1 [I-90] | 5.60 to 6.30 |
| 7.00 to 7.70 | Cc1nn(CCO)cc1Nc1ncc2cc(-c3cncc(N)n3)cc(C(C)C)c2n1 [I-93] | < 5.60 |
| 7.00 to 7.70 | Cc1cnc(C)c(-c2cc(C(C)C)c3nc(Nc4cn(CCO)nc4C)ncc3c2)n1 [I-96] | < 5.60 |

| pIC50 [2] | Structure (SMILES) | pIC50 [1] |
| --- | --- | --- |
| ≥ 7.70 | Cc1nccnc1-c1cc(C(C)C)c2nc(Nc3cn(CCO)nc3C(F)F)ncc2c1 [I-99] | 5.60 to 6.30 |
| ≥ 7.70 | Cc1nn(CCCO)cc1Nc1ncc2cc(-c3nccnc3C)cc(C(C)C)c2n1 [I-100] | 5.60 to 6.30 |
| 7.00 to 7.70 | Cc1nn(CCO)cc1Nc1ncc2cc(-c3nnccc3C#N)cc(C(C)C)c2n1 [I-117] | < 5.60 |
| 7.00 to 7.70 | Cc1nn(CCO)cc1Nc1ncc2cc(-c3cncnc3)cc(C(C)C)c2n1 [I-123] | 5.60 to 6.30 |
| 7.00 to 7.70 | Cc1nn(CCO)cc1Nc1ncc2cc(-c3cncnc3N)cc(C(C)C)c2n1 [I-124] | < 5.60 |
| ≥ 7.70 | Cc1nn(CCO)cc1Nc1ncc2cc(-c3c(C)ncnc3Cl)cc(C(C)C)c2n1 [I-127] | < 5.60 |
| ≥ 7.70 | Cc1nn(CCO)cc1Nc1ncc2cc(-c3c(C)ncnc3C)cc(C(C)C)c2n1 [I-128] | < 5.60 |
| 7.00 to 7.70 | Cc1nn(CCO)cc1Nc1ncc2cc(-c3c(C)ncnc3N)cc(C(C)C)c2n1 [I-129] | < 5.60 |
| 7.00 to 7.70 | Cc1nn(CCO)cc1Nc1ncc2cc(-c3c(C)ncnc3O)cc(C(C)C)c2n1 [I-130] | < 5.60 |
| ≥ 7.70 | COc1ncnc(C)c1-c1cc(C(C)C)c2nc(Nc3cn(CCO)nc3C)ncc2c1 [I-131] | < 5.60 |
| ≥ 7.70 | Cc1nn(CCO)cc1Nc1ncc2cc(-c3ncnc(C)c3Br)cc(C(C)C)c2n1 [I-139] | 5.60 to 6.30 |
| 7.00 to 7.70 | Cc1ncnc(C)c1-c1cc(C(C)C)c2nc(Nc3cn(CCO)nc3C(F)F)ncc2c1 [I-141] | < 5.60 |
| ≥ 7.70 | Cc1nn(CCCO)cc1Nc1ncc2cc(-c3c(C)ncnc3C)cc(C(C)C)c2n1 [I-142] | < 5.60 |
| 7.00 to 7.70 | Cc1ncnc(C)c1-c1cc(C(C)C)c2nc(Nc3cn(CCO)nc3Cl)ncc2c1 [I-143] | < 5.60 |
| ≥ 7.70 | Cc1nn(CC(C)(C)O)cc1Nc1ncc2cc(-c3c(C)ncnc3C)cc(C(C)C)c2n1 [I-144] | < 5.60 |
| ≥ 7.70 | Cc1nn(CCO)cc1Nc1ncc2cc(-c3c(O)cccc3F)cc(C(C)C)c2n1 [I-155] | 5.60 to 6.30 |
| ≥ 7.70 | Cc1nn(CCO)cc1Nc1ncc2cc(-c3cn(C)nc3C)cc(C(C)C)c2n1 [I-188] | 5.60 to 6.30 |
| ≥ 7.70 | Cc1cn(C)nc1-c1cc(C(C)C)c2nc(Nc3cn(CCO)nc3C)ncc2c1 [I-190] | 5.60 to 6.30 |
